Source: ChEMBL document CHEMBL5465560, “Selectivity Literature for EUbOPEN Chemogenomic Library” (2024)

Assays:
[1] = target: T1, Histone-arginine methyltransferase CARM1 (Homo sapiens) (UniProt Q86X55); settings: at 1 µM
T1 sequence (whole entry): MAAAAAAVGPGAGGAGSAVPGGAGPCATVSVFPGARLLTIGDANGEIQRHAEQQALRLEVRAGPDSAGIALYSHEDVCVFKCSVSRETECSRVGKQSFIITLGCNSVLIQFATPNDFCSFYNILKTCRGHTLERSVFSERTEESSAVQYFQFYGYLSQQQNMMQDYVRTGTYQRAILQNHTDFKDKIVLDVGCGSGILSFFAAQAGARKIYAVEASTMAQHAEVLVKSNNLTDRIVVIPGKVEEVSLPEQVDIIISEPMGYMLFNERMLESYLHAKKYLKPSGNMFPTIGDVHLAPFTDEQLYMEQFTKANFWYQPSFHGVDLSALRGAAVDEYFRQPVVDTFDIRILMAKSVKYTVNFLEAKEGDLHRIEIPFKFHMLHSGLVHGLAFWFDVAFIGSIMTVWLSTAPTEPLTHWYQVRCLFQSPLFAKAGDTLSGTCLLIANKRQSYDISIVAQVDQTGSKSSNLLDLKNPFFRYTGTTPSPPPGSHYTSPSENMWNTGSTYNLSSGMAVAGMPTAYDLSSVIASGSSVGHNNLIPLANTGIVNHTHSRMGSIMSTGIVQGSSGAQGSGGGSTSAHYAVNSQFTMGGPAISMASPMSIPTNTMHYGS

[2] = target: T2, Dual serine/threonine and tyrosine protein kinase (Homo sapiens) (UniProt Q6XUX3); assay: Selectivity interaction (KinomeScan (DiscoverX)) EUB0000695a DSTYK; settings: at 100 nM
T2 sequence (whole entry): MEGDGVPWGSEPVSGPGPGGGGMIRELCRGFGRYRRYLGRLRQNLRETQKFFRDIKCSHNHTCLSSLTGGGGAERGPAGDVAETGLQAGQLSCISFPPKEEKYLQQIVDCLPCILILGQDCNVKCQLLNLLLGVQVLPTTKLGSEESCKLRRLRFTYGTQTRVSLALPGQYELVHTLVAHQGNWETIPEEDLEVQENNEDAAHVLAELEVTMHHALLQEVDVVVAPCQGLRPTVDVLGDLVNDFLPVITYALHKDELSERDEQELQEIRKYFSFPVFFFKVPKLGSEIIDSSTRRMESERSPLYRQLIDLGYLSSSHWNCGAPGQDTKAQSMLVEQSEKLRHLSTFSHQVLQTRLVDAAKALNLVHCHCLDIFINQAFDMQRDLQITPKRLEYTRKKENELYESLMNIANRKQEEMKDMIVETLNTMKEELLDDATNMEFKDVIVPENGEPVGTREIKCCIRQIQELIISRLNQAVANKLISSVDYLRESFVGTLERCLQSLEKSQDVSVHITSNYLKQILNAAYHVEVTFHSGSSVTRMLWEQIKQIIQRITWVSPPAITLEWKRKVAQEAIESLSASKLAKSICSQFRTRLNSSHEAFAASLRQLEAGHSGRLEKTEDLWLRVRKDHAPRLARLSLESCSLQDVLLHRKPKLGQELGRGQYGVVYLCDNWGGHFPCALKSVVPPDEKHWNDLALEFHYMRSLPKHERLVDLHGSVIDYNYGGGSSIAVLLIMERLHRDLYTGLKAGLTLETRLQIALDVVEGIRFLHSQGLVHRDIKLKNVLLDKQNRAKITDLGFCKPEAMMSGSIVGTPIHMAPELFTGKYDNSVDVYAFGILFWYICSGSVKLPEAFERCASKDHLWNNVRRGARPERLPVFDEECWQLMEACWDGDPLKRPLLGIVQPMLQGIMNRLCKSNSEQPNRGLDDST

[3] = target: Calcium/calmodulin-dependent protein kinase type II subunit alpha (Homo sapiens, UniProt Q9UQM7); assay: Selectivity interaction (KinomeScan (DiscoverX)) EUB0000229b CAMK2A; settings: at 10 µM
[4] = target: Glycogen synthase kinase-3 beta (Homo sapiens, UniProt P49841); assay: Selectivity interaction (KinomeScan (DiscoverX)) EUB0000229b GSK3B; settings: at 10 µM
[5] = target: T3, Serine/threonine-protein kinase DCLK1 (Homo sapiens) (UniProt O15075); assay: Selectivity interaction (KinomeScan (DiscoverX)) EUB0000229b DCLK1; settings: at 10 µM
T3 sequence (whole entry): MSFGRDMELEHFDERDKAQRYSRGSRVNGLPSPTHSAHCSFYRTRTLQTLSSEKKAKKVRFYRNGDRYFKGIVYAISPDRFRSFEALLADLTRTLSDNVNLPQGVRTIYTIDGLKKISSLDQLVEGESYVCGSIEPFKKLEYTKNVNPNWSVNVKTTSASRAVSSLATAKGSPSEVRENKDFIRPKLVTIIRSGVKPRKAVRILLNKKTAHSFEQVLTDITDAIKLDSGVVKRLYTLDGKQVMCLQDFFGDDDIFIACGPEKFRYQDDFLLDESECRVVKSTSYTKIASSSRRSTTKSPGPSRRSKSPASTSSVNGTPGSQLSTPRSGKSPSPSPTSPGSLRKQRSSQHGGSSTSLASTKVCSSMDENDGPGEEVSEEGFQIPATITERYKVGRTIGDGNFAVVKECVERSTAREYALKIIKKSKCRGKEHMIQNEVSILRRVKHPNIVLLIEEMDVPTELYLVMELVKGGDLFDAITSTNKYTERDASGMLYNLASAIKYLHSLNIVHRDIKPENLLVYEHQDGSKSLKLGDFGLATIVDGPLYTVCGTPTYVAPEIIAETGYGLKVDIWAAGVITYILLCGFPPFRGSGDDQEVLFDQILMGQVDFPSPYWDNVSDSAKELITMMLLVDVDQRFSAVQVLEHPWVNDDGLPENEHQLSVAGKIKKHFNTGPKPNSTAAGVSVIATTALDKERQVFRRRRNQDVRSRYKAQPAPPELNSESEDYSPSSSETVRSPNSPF

[6] = target: Maternal embryonic leucine zipper kinase (Homo sapiens) (UniProt Q14680); assay: Selectivity interaction (KinomeScan (DiscoverX)) EUB0000229b MELK; settings: at 10 µM
[7] = tested on: Tyrosine-protein kinase ABL1 (Homo sapiens), P00519 [T315I]; assay: Selectivity interaction (KinomeScan (DiscoverX)) EUB0000092b ABL1; settings: at 10 µM
[8] = target: Cyclin-dependent kinase 16 (Homo sapiens) (UniProt Q00536); assay: Selectivity interaction (KinomeScan (DiscoverX)) EUB0000092b CDK16; settings: at 10 µM
[9] = target: Tyrosine-protein kinase JAK1 (Homo sapiens, UniProt P23458); assay: Selectivity interaction (KinomeScan (DiscoverX)) EUB0000092b JAK1; settings: at 10 µM
[10] = target: Tyrosine-protein kinase Fgr (Homo sapiens) (UniProt P09769); assay: Selectivity interaction (KinomeScan (DiscoverX)) EUB0000045b FGR
[11] = target: DNA-dependent protein kinase catalytic subunit (Homo sapiens) (UniProt P78527); assay: Selectivity interaction (ActivX KiNativ screen (ex vivo kinase selectivity in human PBMCs)) EUB0001619a PRKDC; type: cell-based; settings: PBMC, at 1 µM
[12] = target: BMP-2-inducible protein kinase (Homo sapiens) (UniProt Q9NSY1); assay: Selectivity interaction (KinomeScan (DiscoverX)) EUB0000607a BMP2K; settings: at 10 µM
Sequence of BMP-2-inducible protein kinase (Homo sapiens) (Q9NSY1 whole entry, looked up): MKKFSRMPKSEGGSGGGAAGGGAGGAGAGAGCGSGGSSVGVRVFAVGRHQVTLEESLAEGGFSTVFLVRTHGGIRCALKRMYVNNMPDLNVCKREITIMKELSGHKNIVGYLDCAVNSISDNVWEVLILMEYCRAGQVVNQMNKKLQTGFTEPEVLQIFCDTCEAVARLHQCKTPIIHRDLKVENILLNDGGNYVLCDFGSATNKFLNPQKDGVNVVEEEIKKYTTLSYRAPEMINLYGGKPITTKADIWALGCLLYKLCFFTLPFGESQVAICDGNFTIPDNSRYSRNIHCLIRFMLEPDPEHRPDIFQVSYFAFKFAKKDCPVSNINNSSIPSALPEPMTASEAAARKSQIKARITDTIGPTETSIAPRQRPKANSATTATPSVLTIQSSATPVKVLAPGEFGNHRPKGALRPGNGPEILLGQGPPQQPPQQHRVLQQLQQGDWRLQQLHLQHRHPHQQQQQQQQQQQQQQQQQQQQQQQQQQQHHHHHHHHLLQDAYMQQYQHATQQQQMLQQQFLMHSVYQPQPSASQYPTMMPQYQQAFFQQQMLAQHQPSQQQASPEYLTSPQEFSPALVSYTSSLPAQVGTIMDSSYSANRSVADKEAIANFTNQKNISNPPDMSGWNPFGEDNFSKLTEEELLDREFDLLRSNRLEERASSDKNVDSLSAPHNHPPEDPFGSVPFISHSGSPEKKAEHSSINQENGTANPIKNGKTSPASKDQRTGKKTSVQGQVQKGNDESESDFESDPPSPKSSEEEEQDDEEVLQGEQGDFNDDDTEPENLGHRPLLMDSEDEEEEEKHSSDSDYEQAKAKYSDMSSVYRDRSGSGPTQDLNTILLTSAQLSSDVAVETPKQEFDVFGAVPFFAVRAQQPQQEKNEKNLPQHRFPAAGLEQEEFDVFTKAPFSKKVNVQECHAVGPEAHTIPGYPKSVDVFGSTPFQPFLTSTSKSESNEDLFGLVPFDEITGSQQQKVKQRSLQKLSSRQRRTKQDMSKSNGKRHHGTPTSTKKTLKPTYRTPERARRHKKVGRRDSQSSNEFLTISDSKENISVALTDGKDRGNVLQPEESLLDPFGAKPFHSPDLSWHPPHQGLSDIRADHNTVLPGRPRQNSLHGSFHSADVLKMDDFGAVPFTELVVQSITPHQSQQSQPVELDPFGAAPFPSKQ

Sequence of Tyrosine-protein kinase Fgr (Homo sapiens) (P09769 2-529 limits assumed): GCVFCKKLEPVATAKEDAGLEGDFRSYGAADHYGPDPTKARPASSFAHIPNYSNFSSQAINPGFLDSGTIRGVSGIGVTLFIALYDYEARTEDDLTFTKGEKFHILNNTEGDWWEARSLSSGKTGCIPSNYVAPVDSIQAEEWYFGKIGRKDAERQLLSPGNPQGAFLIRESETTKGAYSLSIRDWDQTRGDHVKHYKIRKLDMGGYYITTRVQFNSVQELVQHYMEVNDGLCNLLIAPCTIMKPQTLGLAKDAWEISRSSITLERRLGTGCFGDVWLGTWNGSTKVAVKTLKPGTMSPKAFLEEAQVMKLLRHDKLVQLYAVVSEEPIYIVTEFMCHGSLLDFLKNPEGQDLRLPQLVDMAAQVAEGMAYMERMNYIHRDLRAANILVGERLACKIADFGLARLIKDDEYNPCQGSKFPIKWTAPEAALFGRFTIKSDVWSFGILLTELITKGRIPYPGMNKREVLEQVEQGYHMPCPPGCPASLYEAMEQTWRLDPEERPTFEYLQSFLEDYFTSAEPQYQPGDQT
Sequence of Maternal embryonic leucine zipper kinase (Homo sapiens) (Q14680 whole entry, looked up): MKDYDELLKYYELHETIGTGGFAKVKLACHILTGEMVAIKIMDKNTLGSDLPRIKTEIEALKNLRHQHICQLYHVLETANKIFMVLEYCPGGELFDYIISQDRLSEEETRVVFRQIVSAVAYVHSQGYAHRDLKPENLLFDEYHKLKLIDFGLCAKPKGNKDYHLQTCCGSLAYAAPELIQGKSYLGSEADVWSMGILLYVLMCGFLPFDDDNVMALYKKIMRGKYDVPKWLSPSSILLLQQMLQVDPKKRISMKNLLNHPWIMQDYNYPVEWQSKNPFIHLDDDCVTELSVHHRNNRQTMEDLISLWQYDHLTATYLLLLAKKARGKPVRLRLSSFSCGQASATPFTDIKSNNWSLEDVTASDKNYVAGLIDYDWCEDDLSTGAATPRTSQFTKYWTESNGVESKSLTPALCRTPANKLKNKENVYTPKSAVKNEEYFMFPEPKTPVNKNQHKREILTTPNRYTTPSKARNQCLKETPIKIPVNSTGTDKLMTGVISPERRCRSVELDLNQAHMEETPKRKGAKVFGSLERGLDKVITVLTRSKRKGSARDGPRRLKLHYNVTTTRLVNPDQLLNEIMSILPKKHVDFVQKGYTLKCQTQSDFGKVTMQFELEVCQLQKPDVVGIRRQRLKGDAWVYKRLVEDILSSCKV
Sequence of Calcium/calmodulin-dependent protein kinase type II subunit alpha (Q9UQM7 whole entry): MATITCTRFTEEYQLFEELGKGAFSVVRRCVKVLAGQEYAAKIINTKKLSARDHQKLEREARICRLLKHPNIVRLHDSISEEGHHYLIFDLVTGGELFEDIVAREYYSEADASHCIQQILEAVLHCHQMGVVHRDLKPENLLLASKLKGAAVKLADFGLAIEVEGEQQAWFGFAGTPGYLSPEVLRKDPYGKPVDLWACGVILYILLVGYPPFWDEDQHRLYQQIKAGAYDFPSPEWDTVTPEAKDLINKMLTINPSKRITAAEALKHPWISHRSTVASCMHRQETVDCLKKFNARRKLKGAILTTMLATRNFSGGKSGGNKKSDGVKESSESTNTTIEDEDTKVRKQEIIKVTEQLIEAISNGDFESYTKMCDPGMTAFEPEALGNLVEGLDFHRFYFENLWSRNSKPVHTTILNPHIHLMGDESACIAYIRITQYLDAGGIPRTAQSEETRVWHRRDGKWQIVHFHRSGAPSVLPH
Sequence of Glycogen synthase kinase-3 beta (P49841 whole entry, looked up): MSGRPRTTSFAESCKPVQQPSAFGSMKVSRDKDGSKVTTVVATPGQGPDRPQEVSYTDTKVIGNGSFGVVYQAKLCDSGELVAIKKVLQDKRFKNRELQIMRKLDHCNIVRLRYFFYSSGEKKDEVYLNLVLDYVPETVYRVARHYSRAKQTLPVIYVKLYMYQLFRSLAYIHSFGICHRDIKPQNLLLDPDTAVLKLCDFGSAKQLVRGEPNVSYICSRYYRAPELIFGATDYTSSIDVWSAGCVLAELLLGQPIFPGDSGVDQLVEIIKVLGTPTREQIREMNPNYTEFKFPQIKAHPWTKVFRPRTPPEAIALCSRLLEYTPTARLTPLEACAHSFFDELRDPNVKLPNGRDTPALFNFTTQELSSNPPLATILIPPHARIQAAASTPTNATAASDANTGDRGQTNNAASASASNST
Sequence of Cyclin-dependent kinase 16 (Homo sapiens) (Q00536 whole entry): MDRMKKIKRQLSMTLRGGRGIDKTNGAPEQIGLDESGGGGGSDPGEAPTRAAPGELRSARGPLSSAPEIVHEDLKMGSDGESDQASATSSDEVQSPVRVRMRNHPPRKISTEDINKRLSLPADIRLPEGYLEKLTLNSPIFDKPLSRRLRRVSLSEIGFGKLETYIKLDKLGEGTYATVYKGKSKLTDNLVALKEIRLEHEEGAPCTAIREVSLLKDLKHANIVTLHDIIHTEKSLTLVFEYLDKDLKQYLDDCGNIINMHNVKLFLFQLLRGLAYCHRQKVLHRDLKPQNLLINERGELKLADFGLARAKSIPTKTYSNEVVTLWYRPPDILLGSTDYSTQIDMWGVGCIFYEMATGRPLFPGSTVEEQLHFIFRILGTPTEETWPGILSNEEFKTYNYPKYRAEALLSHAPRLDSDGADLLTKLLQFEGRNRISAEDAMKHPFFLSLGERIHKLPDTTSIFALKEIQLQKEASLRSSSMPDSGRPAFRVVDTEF
Sequence of Tyrosine-protein kinase JAK1 (P23458 whole entry): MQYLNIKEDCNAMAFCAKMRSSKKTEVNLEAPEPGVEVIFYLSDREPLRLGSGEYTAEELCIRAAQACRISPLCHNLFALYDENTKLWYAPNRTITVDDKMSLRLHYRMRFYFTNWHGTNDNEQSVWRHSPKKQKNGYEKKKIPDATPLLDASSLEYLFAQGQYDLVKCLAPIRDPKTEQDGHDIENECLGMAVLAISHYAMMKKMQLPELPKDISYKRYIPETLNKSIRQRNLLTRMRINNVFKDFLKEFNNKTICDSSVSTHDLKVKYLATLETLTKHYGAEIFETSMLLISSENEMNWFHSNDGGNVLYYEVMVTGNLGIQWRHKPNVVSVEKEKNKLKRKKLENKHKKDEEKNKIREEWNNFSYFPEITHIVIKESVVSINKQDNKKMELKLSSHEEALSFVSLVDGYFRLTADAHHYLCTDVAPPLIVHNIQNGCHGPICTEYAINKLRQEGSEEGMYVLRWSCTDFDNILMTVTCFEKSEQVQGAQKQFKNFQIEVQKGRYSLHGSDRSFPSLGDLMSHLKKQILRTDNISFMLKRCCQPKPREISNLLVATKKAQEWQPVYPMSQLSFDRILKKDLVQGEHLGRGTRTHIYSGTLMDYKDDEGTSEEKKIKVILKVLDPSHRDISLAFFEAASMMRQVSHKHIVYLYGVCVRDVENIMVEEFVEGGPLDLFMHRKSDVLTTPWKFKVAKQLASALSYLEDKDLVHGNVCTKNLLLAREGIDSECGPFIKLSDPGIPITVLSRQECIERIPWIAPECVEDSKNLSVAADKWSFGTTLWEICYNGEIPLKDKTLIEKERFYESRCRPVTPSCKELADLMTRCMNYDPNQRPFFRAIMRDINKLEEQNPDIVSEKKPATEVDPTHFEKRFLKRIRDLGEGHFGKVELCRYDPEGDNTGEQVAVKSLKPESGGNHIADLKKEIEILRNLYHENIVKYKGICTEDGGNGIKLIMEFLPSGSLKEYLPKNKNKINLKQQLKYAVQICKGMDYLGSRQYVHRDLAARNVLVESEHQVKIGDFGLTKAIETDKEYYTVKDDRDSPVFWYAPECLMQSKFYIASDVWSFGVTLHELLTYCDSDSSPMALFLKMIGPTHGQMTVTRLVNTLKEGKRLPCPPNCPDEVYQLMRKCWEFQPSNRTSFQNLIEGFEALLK

For `CNCCN1CCC(c2cc(CN(C)C(=O)c3cccc(Oc4ccccc4)c3)ccn2)CC1`, the % activity [1] was 75%.

For `Cc1cc(F)c(C(=O)Nc2cccc(-c3nncn3C(C)C)n2)cc1-n1cnc(C2CC2)c1`, the % of control [2] was 79%.

Work on `COc1cc(N(C)c2ccnc3ccc(C(F)(F)F)cc23)cc(OC)c1OC` yielded a % binding [3] of 77%, a % binding [4] of 81% and a % binding [5] of 73%. The % binding [6] was 91%.

`CCC(=O)N1CCN(c2ccc(-n3c(=O)ccc4cnc5ccc(-c6cnc7ccccc7c6)cc5c43)cc2C(F)(F)F)CC1` showed a % of control [7] of 100%, a % of control [8] of 91% and a % of control [9] of 76%.

With `C=CC(=O)Nc1cc(-n2c(=O)ccc3cnc4ccc(-c5ccc(NS(C)(=O)=O)cc5)cc4c32)ccc1C` the % of control ([10]; at 1 µM) was 72% and the % of control ([10]; at 10 µM) was 79%.

Compound `N#Cc1cccc(-c2c[nH]c3ncnc(N4CCOCC4)c23)c1` has a % of inhibition [11] of -6%.

In the case of `CNC(=O)Nc1ccc(-c2nc(N3CC4CCC(C3)O4)c3cnn(C4CCC5(CC4)OCCO5)c3n2)cc1`, the % of control [12] is reported as 85%.
